Results published in patent US20040102501A1, “Stable, low free formaldehyde, synergistic antimicrobial compositions of aldehyde donors and dehydroacetic acid” (priority 2002, published 2004).

How the values were obtained:
[1] = tested on: Mixed bacteria: equal mixture of Staphylococcus aureus (ATCC No. 6538), Pseudomonas aeruginosa (ATCC No. 9027), and Escherichia coli (ATCC No. 8739); experiment: Preservative challenge test against mixed bacteria in anionic protein shampoo; format: cell-based
Description: Mixed bacteria challenge tests were performed by adding approximately 1-5×10^6 organisms per gram of formulation, the organisms comprising an equally divided mixture of Staphylococcus aureus (ATCC No. 6538), Pseudomonas aeruginosa (ATCC No. 9027), and Escherichia coli (ATCC No. 8739) incubated at 36° C. on nutrient agar […] 24 hours prior to testing. The test samples were incubated at 23° C. (room temperature) for the number of days indicated, after which an aliquot of the sample was taken and diluted stepwise to a 10^6 fold reduction in concentration. The diluted samples were plated out on tryptic soy agar and incubated for 48 hours at 36° C. After incubation, readings of the total number of colony forming units per gram (cfu/g) were made on the samples. Table 3 illustrates the levels at which the individual components Glydant®2000 and DHA are effective and ineffective against bacteria.

[2] = tested on: Mixed bacteria: equal mixture of Staphylococcus aureus (ATCC No. 6538), Pseudomonas aeruginosa (ATCC No. 9027), and Escherichia coli (ATCC No. 8739); experiment: Synergy at Day 14 (Kull method, QA/Qa+QB/Qb) from mixed bacteria challenge test; format: cell-based; conditions: DHA alone
Description: A synergistic effect is a response to a combination of two or more components that produce an effect greater than the sum of their individual effects. […] E. Kull et al., “Mixtures of Quaternary Ammonium Compounds and Long-chain Fatty Acids as Antifungal Agents”, Applied Microbiology, 9:538-541 (1961). The synergism value is determined by the formula: […]
where QA is the quantity of Compound A in mixture, producing an endpoint; Qa is the quantity of Compound a acting alone, producing an endpoint; QB is the concentration of Compound B in the mixture, producing an endpoint. Qb is the concentration of Compound b acting alone, producing an endpoint.
When the value of (QA/Qa+QB/Qb) is less than one, the mixture is synergistic. Values for (QA/Qa+QB/Qb) of 1 and greater than 1, represent an additive effect and an antagonistic effect, respectively. According to this method of measuring synergism, the quantity of each component in the various mixtures is compared with the quantity of pure component that is required to reach the same endpoint or to produce the same microbiological effect as the mixture. […]

[3] = 0.150% preservative as supplied

## CC(=O)C1C(=O)C=C(C)OC1=O (stereo not shown) [DHA, dehydroacetic acid]
[1]; [3]
  Day 0 cfu/g.: 3.0 × 10^6 cfu/g
  Day 7 cfu/g.: 8.0 × 10^3 cfu/g
  Day 14 cfu/g.: 1.0 × 10^6 cfu/g
[1]; 0.20% preservative as supplied
  Day 0 cfu/g.: 3.0 × 10^6 cfu/g
  Day 7 cfu/g.: 1.0 × 10^3 cfu/g
  Day 14 cfu/g.: <10 cfu/g
[2]
  Qb (concentration of Compound b acting alone, producing an endpoint): 0.2%
